Measured values taken from US9115169B2, “Method of treating tumors” (Lytix Biopharma AS, priority 2000, dated 2015).
In brackets after ≈: the same amount, converted by molar mass. Read-outs that look alike come from different tables or passages of the source. Where a SMILES comes first, the peptide text is derived from it. [ ]: non-standard residue; d: D form. The star is where a group is joined. Trp(2-Pmc) = Cc1c(C)c(S(=O)(=O)c2[nH]c3ccccc3c2C[C@H](N)C(=O)O)c(C)c2c1OC(C)(C)CC2; Bip = N[C@@H](Cc1ccc(-c2ccccc2)cc1)C(=O)O; OBn = c1ccc(CO*)cc1

How the values were obtained:
[1] = system: Escherichia coli ATCC 25922
[2] = system: Staphylococcus aureus ATCC 25923

| SMILES | MIC E. coli ([1]; ATCC 25922) [µg/mL] | MIC E. coli ([1]; Table 8, second column) | MIC S. aureus ([2]; ATCC 25923) [µg/mL] | MIC S. aureus ([2]; Table 8, second column) | Minimum inhibitory concentration E. coli ([1]; ATCC 25922) [µg/mL] | Minimum inhibitory concentration S. aureus ([2]; ATCC 25923) [µg/mL] |
| --- | --- | --- | --- | --- | --- | --- |
| C[C@H](N)C(=O)N[C@@H](C)C(=O)N[C@@H](Cc1ccc(-c2ccccc2)cc1)C(=O)N[C@@H](Cc1ccc(-c2ccccc2)cc1)C(=O)N[C@@H](CCCNC(=N)N)C(=O)N[C@@H](CCCNC(=N)N)C(N)=O [AABBRR-NH2] (H-AA[Bip][Bip]RR-NH2; N-terminus assumed) | 20 to 35 | 21.8-38.1 μM/ml | 5 (≈ 5.45 µM) | 5.4 μM/ml | – | – |
| C[C@H](N)C(=O)N[C@@H](C)C(=O)N[C@@H](Cc1c[nH]c2ccccc12)C(=O)N[C@@H](Cc1ccc(-c2ccccc2)cc1)C(=O)N[C@@H](CCCNC(=N)N)C(=O)N[C@@H](CCCNC(=N)N)C(N)=O [AAWBRR-NH2] (H-AAW[Bip]RR-NH2; N-terminus assumed) | 150 (≈ 170 µM) | 170.2 μM/ml | 20 to 35 | 22.7-39.7 μM/ml | – | – |
| Cc1c(C)c(S(=O)(=O)c2[nH]c3ccccc3c2C[C@H](NC(=O)[C@H](C)NC(=O)[C@H](C)N)C(=O)N[C@@H](CCCNC(=N)N)C(=O)N[C@@H](Cc2ccc(-c3ccccc3)cc2)C(=O)N[C@@H](CCCNC(=N)N)C(N)=O)c(C)c2c1OC(C)(C)CC2 [AAWRBR-NH2 Pmc+] (H-AA[Trp(2-Pmc)]R[Bip]R-NH2; N-terminus assumed) | – | 13.1 μM/ml | – | 2.2 μM/ml | – | – |
| C[C@H](N)C(=O)N[C@@H](C)C(=O)N[C@@H](Cc1c[nH]c2ccccc12)C(=O)N[C@@H](CCCNC(=N)N)C(=O)N[C@@H](Cc1ccc(-c2ccccc2)cc1)C(=O)N[C@@H](CCCNC(=N)N)C(N)=O [AAWRBR-NH2] (H-AAWR[Bip]R-NH2; N-terminus assumed) | 150 to 300 | – | 35 (≈ 39.7 µM) | 39.7 μM/ml | – | – |
| C[C@H](N)C(=O)N[C@@H](C)C(=O)N[C@@H](Cc1c[nH]c2ccccc12)C(=O)N[C@@H](Cc1c[nH]c2ccccc12)C(=O)N[C@@H](CCCNC(=N)N)C(=O)N[C@@H](CCCNC(=N)N)C(N)=O [AAWWRR-NH2] (H-AAWWRR-NH2; N-terminus assumed) | >200 | 237.0 μM/ml | >200 | 237.0 μM/ml | – | – |
| Cc1c(C)c(S(=O)(=O)c2[nH]c3ccccc3c2C[C@H](NC(=O)[C@H](C)N)C(=O)N[C@@H](CCCNC(=N)N)C(=O)N[C@@H](Cc2ccc(-c3ccccc3)cc2)C(=O)N[C@@H](CCCNC(=N)N)C(=O)N[C@@H](C)C(N)=O)c(C)c2c1OC(C)(C)CC2 [AWRBRA-NH2 Pmc+] (H-A[Trp(2-Pmc)]R[Bip]RA-NH2; N-terminus assumed) | – | 8.7 μM/ml | – | 2.2 μM/ml | – | – |
| C[C@H](N)C(=O)N[C@@H](Cc1c[nH]c2ccccc12)C(=O)N[C@@H](CCCNC(=N)N)C(=O)N[C@@H](Cc1ccc(-c2ccccc2)cc1)C(=O)N[C@@H](CCCNC(=N)N)C(=O)N[C@@H](C)C(N)=O [AWRBRA-NH2] (H-AWR[Bip]RA-NH2; N-terminus assumed) | 35 (≈ 39.7 µM) | 39.7 μM/ml | 35 (≈ 39.7 µM) | 39.7 μM/ml | – | – |
| C[C@H](NC(=O)[C@H](C)NC(=O)[C@H](Cc1ccc(-c2ccccc2)cc1)NC(=O)[C@@H](N)Cc1ccc(-c2ccccc2)cc1)C(=O)N[C@@H](CCCNC(=N)N)C(=O)N[C@@H](CCCNC(=N)N)C(N)=O [BBAARR-NH2] (H-[Bip][Bip]AARR-NH2; N-terminus assumed) | >150 | 163.4 μM/ml | 5 (≈ 5.45 µM) | 5.4 μM/ml | – | – |
| N=C(N)NCCC[C@H](NC(=O)[C@H](CCCNC(=N)N)NC(=O)[C@H](Cc1ccc(-c2ccccc2)cc1)NC(=O)[C@@H](N)Cc1ccc(-c2ccccc2)cc1)C(N)=O [BBRR-NH2] (H-[Bip][Bip]RR-NH2; N-terminus assumed) | 50 (≈ 64.4 µM) | 64.4 μM/ml | 5 (≈ 6.44 µM) | 6.4 μM/ml | – | – |
| C[C@H](NC(=O)[C@H](C)NC(=O)[C@H](CCCNC(=N)N)NC(=O)[C@H](CCCNC(=N)N)NC(=O)[C@H](Cc1ccc(-c2ccccc2)cc1)NC(=O)[C@@H](N)Cc1ccc(-c2ccccc2)cc1)C(N)=O [BBRRAA-NH2] (H-[Bip][Bip]RRAA-NH2; N-terminus assumed) | 75 (≈ 81.7 µM) | 81.7 μM/ml | 5 (≈ 5.45 µM) | 5.4 μM/ml | – | – |
| NCCCC[C@H](N)CN[C@@H](Cc1c[nH]c2ccccc12)C(=O)OCc1ccccc1 [Kψ(CH2NH)WOBzl] | – | – | – | – | >300 | 300 (≈ 734 µM) |
| C[C@H](NC(=O)[C@H](C)NC(=O)[C@H](CCCNC(=N)N)NC(=O)[C@@H](N)CCCNC(=N)N)C(=O)N[C@@H](Cc1c[nH]c2ccccc12)C(=O)N[C@@H](Cc1ccc(-c2ccccc2)cc1)C(N)=O [RRAAWB-NH2] (H-RRAAW[Bip]-NH2; N-terminus assumed) | 150 to 300 | – | 10 (≈ 11.4 µM) | 11.3 μM/ml | – | – |
| C[C@H](NC(=O)[C@H](C)NC(=O)[C@H](CCCNC(=N)N)NC(=O)[C@@H](N)CCCNC(=N)N)C(=O)N[C@@H](Cc1c[nH]c2ccccc12)C(=O)N[C@@H](Cc1c[nH]c2ccccc12)C(N)=O [RRAAWW-NH2] (H-RRAAWW-NH2; N-terminus assumed) | >200 | 237.0 μM/ml | >200 | 237.0 μM/ml | – | – |
| C[C@H](NC(=O)[C@H](C)NC(=O)[C@H](Cc1ccc(-c2ccccc2)cc1)NC(=O)[C@@H](N)Cc1c[nH]c2ccccc12)C(=O)N[C@@H](CCCNC(=N)N)C(=O)N[C@@H](CCCNC(=N)N)C(N)=O [WBAARR-NH2] (H-W[Bip]AARR-NH2; N-terminus assumed) | >300 | 340.5 μM/ml | 35 (≈ 39.7 µM) | 39.7 μM/ml | – | – |
| Cc1c(C)c(S(=O)(=O)c2[nH]c3ccccc3c2C[C@H](N)C(=O)N[C@@H](Cc2ccc(-c3ccccc3)cc2)C(=O)N[C@@H](CCCNC(=N)N)C(=O)N[C@@H](CCCNC(=N)N)C(N)=O)c(C)c2c1OC(C)(C)CC2 [WBRR-NH2 Pmc+] (H-[Trp(2-Pmc)][Bip]RR-NH2; N-terminus assumed) | >100 | 99.5 μM/ml | 5 to 10 | 5.0-9.9 μM/ml | – | – |
| N=C(N)NCCC[C@H](NC(=O)[C@@H](N)Cc1c[nH]c2ccccc12)C(=O)N[C@@H](Cc1c[nH]c2ccccc12)C(=O)OCc1ccccc1 [WRW-OBzl] (H-Trp-Arg-Trp-OBn) | – | – | 5 (≈ 7.85 µM) | – | – | – |
